Assay results published in patent US7816347B2, “Pharmaceutical compositions comprising NEP-inhibitors, inhibitors of the endogenous endothelin producing system and HMG CoA reductase inhibitors” (Solvay Pharmaceuticals GmbH, priority 2004, dated 2010).
Where two headings read alike, the source gives them in different places. Marks after values point to notes of the source that are not given here.

Legend:
[1] = system: spontaneously hypertensive rat; assay: Telemetric blood pressure and heart rate in SHR; daglutril, simvastatin or simvastatin+daglutril via drinking water; assay type: in vivo; conditions: for DBP, change from baseline / HR, change from baseline / SBP, change from baseline: 24 h mean, day 23 minus baseline (day 3), intended 40 mg/kg/day simvastatin, 100 mg/kg/day daglutril, n = 4-5
Description: In a first experiment, after 3 days of monitoring under baseline (untreated) conditions, animals received daglutril via the drinking water. The intended daily dose was 100 mg/kg/day of daglutril. The concentration in drinking water was adjusted once per week, resulting in an average drug intake of 98 mg/kg/day.
Concentrations of simvastatin and daglutril in the drinking water were adjusted once per week, in order to ensure the intended daily intake of 40 and 100 mg/kg, respectively. The average daily water intake amounted to 33 and 36 ml/kg in the simvastatin and simvastatin+daglutril group, respectively, resulting in the uptake of 36 mg/kg/day of simvastatin in the simvastatin group, and 37 mg/kg/day of simvastatin and 93 mg/kg/day of daglutril in the combination group.
These 24 h means were exported to Excel®, and group mean values of systolic (SBP), diastolic blood pressure (DBP), heart rate (HR), and locomotor activity (ACT) were calculated daily. For the statistical analysis, the effects of simvastatin and simvastatin+daglutril were calculated by subtracting the baseline value (pre) measured on the last day prior to compound application (day 3) from that value measured on day 23 (i.e. on the penultimate day of the treatment period) for each animal. The statistical comparison was done by using univariate ANOVA at an error level of P<0.05.

[2] = system: spontaneously hypertensive rat; conditions: in food
Description: Male spontaneously hypertensive rats (=SHR; insulin resistant strain from Charles River; aged 6 months) were equipped with telemetry transmitters for continuous monitoring of blood pressure and heart rate (TA11PA-C40, DSI, USA). Telemetry transmitters for continuous monitoring of blood pressure, heart rate and locomotor activity (TA11PA-C40, Data Sciences, USA) were implanted intraabdominally under inhalative halothane anesthesia. A midline abdominal incision was made, and the abdominal aorta was visualized by removal of retroperitoneal fat and connective tissue. A ligature was placed caudal of the renal arteries, the aorta was punctured with a 22G needle, and the catheter was advanced into the aorta. The entry point was sealed with tissue adhesive (Vetbond™, 3M, USA), the ligature was removed, and the abdominal incision was closed. Measurements of aortic pressure were taken every 5 minutes (=min) for 4 seconds (=s) each at a sampling rate of 500 Hz, and were corrected for the corresponding ambient pressure (ambient pressure monitor, C11PR, Data Sciences, USA).
In a further study performed with a new batch of SHR equipped with telemetry-transmitters as described above, the animals were divided into two groups receiving the HMG CoA reductase inhibitor atorvastatin or a combination of atorvastatin+daglutril. Compounds were mixed into the food, and the daily drug intake was measured by weighing the unconsumed food four times weekly. Intended daily doses were 40 mg/kg/day of atorvastatin and in addition, in the combination group, 100 mg/kg/day of daglutril.
Concentrations of atorvastatin and daglutril in the food were adjusted once per week.
For the statistical analysis, the effects of atorvastatin and atorvastatin+daglutril were calculated by subtracting the baseline value (pre) measured on the last day prior to the start of treatment (day 3) from that measured on day 25 (i.e. on the penultimate day of the treatment period) for each animal. The statistical comparison was done by using a two-sided unpaired Student's t-test.

[3] = system: human subjects with congestive heart failure; assay: Single dose study of oral daglutril during 12-hour right heart catheterization; subgroup analysis by concomitant HMG CoA reductase inhibitor; assay type: in vivo; conditions: CHF patients, single oral dose of daglutril (200, 400 or 800 mg groups), with or without concomitant HMG CoA reductase inhibitor; value (SE)
Description: A randomized, placebo-controlled, parallel group, multi-center, single dose study of oral daglutril (vide supra) during 12-hour right heart catheterization in human subjects with congestive heart failure (=CHF) was performed. Each subject received one dose of daglutril or placebo. The study consisted of three visits (or study days when in-subjects were included). Ambulatory subjects were in hospital for two nights and one day. […]
The primary efficacy parameter was the maximum decrease from baseline over 6 hours for SVR and was compared between treatment groups using analysis of covariance, with the baseline value as covariate and center and NYHA classification as factors. […] In addition, the existence of a dose-response relationship for daglutril was evaluated by investigating linear, quadratic and cubic contrasts. The secondary efficacy parameter was the maximum change from baseline over 6 hours for PCWP and was analyzed in the same way as the primary variable. The maximum decrease from baseline over 12 hours, the change from for each individual time point and the adjusted area under the curve (=AUC) over 6 and 12 hours were analyzed for SVR and PCWP, using similar statistical methodology as for the main parameter of interest. […]

[4] = 24 h mean, day 25 minus baseline (day 3), intended 40 mg/kg/day atorvastatin, 100 mg/kg/day daglutril, n = 6

Row | Structure (SMILES) | DBP, change from baseline [1] | HR, change from baseline [1] [min⁻¹] | SBP, change from baseline [1] | DBP, change from baseline [2, 4] [mmHg] | HR, change from baseline [2, 4] [min⁻¹] | SBP, change from baseline [2, 4] [mmHg] | Effect on blood pressure (both SBP and DBP) (in words) ([2]; SHR) | Effect on blood pressure (in words) ([1]; SHR) | Placebo corrected mean change of MPAP (average 0.5-6 hrs) [3]
1 | CCC(C)(C)C(=O)O[C@H]1C[C@@H](C)C=C2C=C[C@H](C)[C@H](CC[C@@H]3C[C@@H](O)CC(=O)O3)[C@H]21 [Simvastatin, simvastatin] | 4.7 mmHg | -4.2 | 4.2 mmHg | – | – | – | – | – | –
2 | CC(C)c1c(C(=O)Nc2ccccc2)c(-c2ccccc2)c(-c2ccc(F)cc2)n1CC[C@@H](O)C[C@@H](O)CC(=O)O [Atorvastatin, atorvastatin] | – | – | – | 3.2 | -25.3 | 3.5 | increase in blood pressure | – | –
3 | CCOC(=O)C(CCc1ccccc1)CC1(C(=O)NC2CCc3ccccc3N(CC(=O)O)C2=O)CCCC1 (stereo not drawn) [daglutril, 2-[1-(1-carboxymethyl-2-oxo-2,3,4,5-tetrahydro-1H-benzo[b]azepin-3-ylcarbamoyl)-cyclopentylmethyl]-4-phenyl-butyric acid ethyl ester] | 2.0* mmHg | -6.0 | −0.3* mmHg | – | – | – | – | no effect on blood pressure | −2.26 (1.05) mm Hg
